Measurements as given in patent publication US20060069132A1, “Azolecarboxamide herbicides” (priority 2004, published 2006).

Legend:
[1] = tested on: large crabgrass; test: Test B pre-/postemergence herbicide test; assay type: in vivo, Digitaria sanguinalis; settings: for Plant response rating, Crabgrass, Large: preemergence; for Crabgrass, Large plant response rating: postemergence, visual rating, scale 0 (no effect) to 100 (complete control)
How it was run: (§1)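 Greenhouse pot assay with simultaneous preemergence (treated seed) and postemergence (2–18 cm seedlings) applications of surfactant-containing, non-phytotoxic solvent formulations. Response scored visually 13–15 days later on a 0–100 scale, 100 meaning complete control.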

[2] = tested on: lambsquarters; test: Test B pre-/postemergence herbicide test; assay type: in vivo, Chenopodium album; settings: for Plant response rating, Lambsquarters: preemergence; for Lambsquarters plant response rating: postemergence, visual rating, scale 0 (no effect) to 100 (complete control)
How it was run: as §1

[3] = tested on: smallflower umbrella sedge; test: Test C flooded paddy test; assay type: in vivo, Cyperus difformis
[4] = tested on: pigweed; test: Test B pre-/postemergence herbicide test; assay type: in vivo, Amaranthus retroflexus; settings: for Plant response rating, Pigweed: preemergence; for Pigweed plant response rating: postemergence, visual rating, scale 0 (no effect) to 100 (complete control)
How it was run: as §1

[5] = tested on: velvetleaf; test: Test B pre-/postemergence herbicide test; assay type: in vivo, Abutilon theophrasti; settings: for Plant response rating, Velvetleaf: preemergence; for Velvetleaf plant response rating: postemergence, visual rating, scale 0 (no effect) to 100 (complete control)
How it was run: as §1

[6] = tested on: blackgrass; test: Test B postemergence herbicide test; assay type: in vivo, Alopecurus myosuroides; settings: postemergence, 500 g ai/ha; visual rating, scale 0 (no effect) to 100 (complete control)
How it was run: (§2)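 Paddy species grown to the 2-leaf stage under flooding; blackgrass sprayed postemergence at 2–18 cm (1- to 4-leaf stage). Plants kept in a greenhouse for 13 to 15 days, then visually rated against controls on 0 (no effect) to 100 (complete control).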

[7] = tested on: barnyardgrass; test: Test B pre-/postemergence herbicide test; assay type: in vivo, Echinochloa crus-galli; settings: for Plant response rating, Barnyardgrass: preemergence; for Barnyardgrass plant response rating: postemergence, visual rating, scale 0 (no effect) to 100 (complete control)
How it was run: (§3)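 Test chemicals in a non-phytotoxic solvent mixture with surfactant were applied preemergence to seeded species and postemergence to plants 2-18 cm tall (1- to 4-leaf stage); rice and barnyardgrass were also tested in a flooded paddy at the 2-leaf stage. Visual rating versus controls after 13-15 days in greenhouse, scale 0 (no effect) to 100 (complete control).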

[8] = tested on: ducksalad; test: Test C flooded paddy test; assay type: in vivo, Heteranthera limosa
[9] = tested on: small flower umbrella sedge; test: Test B flooded paddy test; assay type: in vivo, Cyperus difformis; settings: 1000 g ai/ha, visual rating, scale 0 to 100 (0 no effect, 100 complete control), 13 to 15 days
How it was run: as §2

[10] = tested on: morningglory; test: Test B pre-/postemergence herbicide test; assay type: in vivo, Ipomoea coccinea; settings: for Plant response rating, Morningglory: preemergence; for Morningglory plant response rating: postemergence, visual rating, scale 0 (no effect) to 100 (complete control)
How it was run: as §3

[11] = tested on: wild oat; test: Test B postemergence herbicide test; assay type: in vivo, Avena fatua; settings: postemergence, visual rating, scale 0 (no effect) to 100 (complete control)
How it was run: (§4)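 Greenhouse test; postemergence application to plants at 1–4 leaves (2–18 cm); paddy species at 2 leaves; evaluated visually vs controls at 13–15 days; scale 0–100 (100 = complete control).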

[12] = tested on: Surinam grass; test: Test B pre-/postemergence herbicide test; assay type: in vivo, Urochloa decumbens; settings: for Plant response rating, Surinam Grass: preemergence; for Surinam Grass plant response rating: postemergence, visual rating, scale 0 (no effect) to 100 (complete control)
How it was run: as §1

[13] = tested on: ducksalad; test: Test B flooded paddy test; assay type: in vivo, Heteranthera limosa; settings: 1000 g ai/ha, visual rating, scale 0 to 100 (0 no effect, 100 complete control), 13 to 15 days
How it was run: as §2

[14] = tested on: barnyardgrass; test: Test C flooded paddy test; assay type: in vivo, Echinochloa crus-galli
How it was run: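 Plants were grown to the 1- to 4-leaf stage (2–18 cm) and then treated postemergence, or grown to the 2-leaf stage for the flooded paddy test. They were held in a greenhouse for 12 to 14 days and then scored by eye against controls, where 0 is no effect and 100 is complete control.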

[15] = tested on: wheat; test: Test B postemergence herbicide test; assay type: in vivo, Triticum aestivum; design: key to Wheat plant response rating: 0 = no effect, 100 = complete control; settings: postemergence, 500 g ai/ha; visual rating, scale 0 (no effect) to 100 (complete control)
How it was run: as §4

[16] = tested on: rice; test: Test B pre-/postemergence herbicide test; assay type: in vivo, Oryza sativa; settings: 500 g ai/ha; visual rating 0-100, 0 no effect, 100 complete control; preemergence
How it was run: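 Species tested were Echinochloa crus-galli, Ipomoea coccinea, Xanthium strumarium and Oryza sativa, treated both before emergence and at the 1- to 4-leaf stage; rice and barnyardgrass were also tested under flooding at 2 leaves. Greenhouse incubation lasted 13–15 days before visual 0–100 scoring.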

[17] = tested on: cocklebur; test: Test B pre-/postemergence herbicide test; assay type: in vivo, Xanthium strumarium; settings: for Plant response rating, Cocklebur: preemergence; for Cocklebur plant response rating: postemergence, visual rating, scale 0 (no effect) to 100 (complete control)
How it was run: as §3

[18] = tested on: corn; test: Test B pre-/postemergence herbicide test; assay type: in vivo, Zea mays; settings: for Plant response rating, Corn: preemergence; for Corn plant response rating: postemergence, visual rating, scale 0 (no effect) to 100 (complete control)
How it was run: as §1

[19] = tested on: giant foxtail; test: Test B pre-/postemergence herbicide test; assay type: in vivo, Setaria faberi; settings: for Plant response rating, Foxtail, Giant: preemergence; for Foxtail, Giant plant response rating: postemergence, visual rating, scale 0 (no effect) to 100 (complete control)
How it was run: as §1

[20] = tested on: rice; test: Test C flooded paddy test; assay type: in vivo, Oryza sativa
How it was run: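 Postemergence sprays applied to plants 2 to 18 cm tall (1- to 4-leaf stage); paddy species grown to 2-leaf stage under flooding. After 12 to 14 days in greenhouse, visual rating versus untreated controls on 0–100 scale (0 no effect, 100 complete control).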

[21] = tested on: rice; test: Test B flooded paddy test; assay type: in vivo, Oryza sativa; settings: 1000 g ai/ha, visual rating, scale 0 to 100 (0 no effect, 100 complete control), 13 to 15 days
How it was run: as §4

[22] = tested on: barnyardgrass; test: Test B flooded paddy test; assay type: in vivo, Echinochloa crus-galli; settings: 1000 g ai/ha, visual rating, scale 0 to 100 (0 no effect, 100 complete control), 13 to 15 days
How it was run: as §2

[23] = 500 g ai/ha, visual rating 0-100, 0 no effect, 100 complete control
[24] = 125 g ai/ha, 0 to 100 scale, 0 is no effect, 100 is complete control
[25] = 62 g ai/ha, scale 0 to 100 (0 no effect, 100 complete control)
[26] = 125 g ai/ha, scale 0 to 100 (0 no effect, 100 complete control)
[27] = 250 g ai/ha, scale of 0 to 100, 0 is no effect, 100 is complete control
[28] = 500 g ai/ha, visual rating after 12 to 14 days, scale 0 to 100 (0 no effect, 100 complete control)

Q: For `C#CCN(C)C(=O)c1ccnc(NC(=O)c2cc(C(C)(C)C)nn2CC)c1` [Compound 160], which “Plant response rating, Crabgrass, Large” value [1, 23] is on record?
A: The value was 80.

Q: And the “Crabgrass, Large plant response rating” value ([1]; 125 g ai/ha)?
A: The value was 0.

Q: What about the “Crabgrass, Large plant response rating” value ([1]; 500 g ai/ha) of the same compound?
A: The value was 0.

Q: And the “Plant response rating, Crabgrass, Large” value [1, 24]?
A: Its value is 20.

Q: What about the “Plant response rating, Lambsquarters” value [2, 23] of the same compound?
A: Its value is 100.

Q: And the “Lambsquarters plant response rating” value ([2]; 125 g ai/ha)?
A: The value was 70.

Q: And the “Lambsquarters plant response rating” value ([2]; 500 g ai/ha)?
A: The value was 80.

Q: And the “Plant response rating, Lambsquarters” value [2, 24]?
A: The value was 100.

Q: What about the “Sedge, Umbrella plant response rating” value [3, 25] of the same compound?
A: The value was 50.

Q: And the “Sedge, Umbrella plant response rating” value [3, 26]?
A: Its value is 70.

Q: And the “Sedge, Umbrella plant response rating” value [3, 27]?
A: The value was 80.

Q: And the “Plant response rating, Sedge, Umbrella” value [3, 28]?
A: Its value is 85.

Q: What about the “Plant response rating, Pigweed” value [4, 23] of the same compound?
A: Its value is 100.

Q: And the “Pigweed plant response rating” value ([4]; 125 g ai/ha)?
A: The value was 40.

Q: What about the “Pigweed plant response rating” value ([4]; 500 g ai/ha) of the same compound?
A: Its value is 80.

Q: What about the “Plant response rating, Pigweed” value [4, 24] of the same compound?
A: Its value is 100.

Q: What about the “Plant response rating, Velvetleaf” value [5, 23] of the same compound?
A: The value was 80.

Q: And the “Velvetleaf plant response rating” value ([5]; 125 g ai/ha)?
A: The value was 70.

Q: What about the “Velvetleaf plant response rating” value ([5]; 500 g ai/ha) of the same compound?
A: Its value is 70.

Q: And the “Plant response rating, Velvetleaf” value [5, 24]?
A: Its value is 60.

Q: What about the “Blackgrass plant response rating” value [6] of the same compound?
A: Its value is 50.

Q: And the “Plant response rating, Barnyardgrass” value [7, 23]?
A: Its value is 100.

Q: And the “Barnyardgrass plant response rating” value ([7]; 125 g ai/ha)?
A: The value was 0.

Q: And the “Barnyardgrass plant response rating” value ([7]; 500 g ai/ha)?
A: Its value is 10.

Q: What about the “Plant response rating, Barnyardgrass” value [7, 24] of the same compound?
A: The value was 70.

Q: What about the “Ducksalad plant response rating” value [8, 25] of the same compound?
A: The value was 75.

Q: And the “Ducksalad plant response rating” value [8, 26]?
A: The value was 85.

Q: And the “Ducksalad plant response rating” value [8, 27]?
A: The value was 90.

Q: And the “Plant response rating, Ducksalad” value [8, 28]?
A: Its value is 90.

Q: What about the “Sedge, Umbrella plant response rating” value [9] of the same compound?
A: Its value is 80.

Q: And the “Plant response rating, Morningglory” value [10, 23]?
A: The value was 90.

Q: What about the “Morningglory plant response rating” value ([10]; 125 g ai/ha) of the same compound?
A: The value was 0.

Q: What about the “Morningglory plant response rating” value ([10]; 500 g ai/ha) of the same compound?
A: The value was 70.

Q: What about the “Plant response rating, Morningglory” value [10, 24] of the same compound?
A: Its value is 20.

Q: What about the “Oat, Wild plant response rating” value ([11]; 125 g ai/ha) of the same compound?
A: The value was 10.

Q: And the “Oat, Wild plant response rating” value ([11]; 500 g ai/ha)?
A: The value was 30.

Q: And the “Plant response rating, Surinam Grass” value [12, 23]?
A: Its value is 70.

Q: What about the “Surinam Grass plant response rating” value ([12]; 125 g ai/ha) of the same compound?
A: The value was 10.

Q: What about the “Surinam Grass plant response rating” value ([12]; 500 g ai/ha) of the same compound?
A: The value was 10.

Q: What about the “Plant response rating, Surinam Grass” value [12, 24] of the same compound?
A: Its value is 20.

Q: And the “Ducksalad plant response rating” value [13]?
A: Its value is 90.

Q: What about the “Barnyardgrass plant response rating” value [14, 25] of the same compound?
A: Its value is 20.

Q: What about the “Barnyardgrass plant response rating” value ([14]; 125 g ai/ha, scale of 0 to 100, 0 is no effect, 100 is complete control) of the same compound?
A: Its value is 60.

Q: What about the “Barnyardgrass plant response rating” value [14, 27] of the same compound?
A: The value was 70.

Q: And the “Plant response rating, Barnyardgrass” value [14, 28]?
A: Its value is 85.

Q: And the “Wheat plant response rating” value [15]?
A: Its value is 10.

Q: What about the “Plant response rating, Rice” value [16] of the same compound?
A: Its value is 80.

Q: And the “Plant response rating, Cocklebur” value [17, 23]?
A: The value was 70.

Q: And the “Cocklebur plant response rating” value ([17]; 125 g ai/ha)?
A: Its value is 20.

Q: And the “Cocklebur plant response rating” value ([17]; 500 g ai/ha)?
A: The value was 90.

Q: And the “Plant response rating, Cocklebur” value [17, 24]?
A: Its value is 40.

Q: And the “Plant response rating, Corn” value [18, 23]?
A: The value was 20.

Q: And the “Corn plant response rating” value ([18]; 125 g ai/ha)?
A: The value was 0.

Q: What about the “Corn plant response rating” value ([18]; 500 g ai/ha) of the same compound?
A: Its value is 0.

Q: What about the “Plant response rating, Corn” value [18, 24] of the same compound?
A: Its value is 0.

Q: And the “Plant response rating, Foxtail, Giant” value [19, 23]?
A: Its value is 70.

Q: And the “Foxtail, Giant plant response rating” value ([19]; 125 g ai/ha)?
A: Its value is 30.

Q: What about the “Foxtail, Giant plant response rating” value ([19]; 500 g ai/ha) of the same compound?
A: Its value is 30.

Q: What about the “Plant response rating, Foxtail, Giant” value [19, 24] of the same compound?
A: The value was 10.

Q: And the “Rice plant response rating” value [20, 25]?
A: Its value is 60.

Q: And the “Rice plant response rating” value [20, 26]?
A: The value was 70.

Q: What about the “Rice plant response rating” value [20, 27] of the same compound?
A: The value was 75.

Q: And the “Plant response rating, Rice” value [20, 28]?
A: The value was 95.

Q: What about the “Rice plant response rating” value [21] of the same compound?
A: Its value is 90.

Q: What about the “Barnyardgrass plant response rating” value [22] of the same compound?
A: The value was 70.
